# Assay results taken from patent publication US9102932B2, “Orthogonal translation components for the in vivo incorporation of unnatural amino acids” (The Scripps Research Institute, priority 2004, dated 2015).
# Tests used:
# [1] = Photodecaging of O-(2-nitrobenzyl)-L-tyrosine by irradiation at 365 nm, LC/MS; type: physicochemical
# Method: FIG. 9 provides concentration curve assays illustrating the experimentally observed photodecaging (photoactivation) of the caged tyrosine molecule O-(2-nitrobenzyl)-L-tyrosine. Photodecaging of O-(2-nitrobenzyl)-L-tyrosine was illustrated by irradiation of a 0.2 mM amino acid solution in water using a handheld UV lamp (365 nm at 10 mm distance). Aliquots were taken at specific time points and analyzed by LC/MS. The concentrations of O-(2-nitrobenzyl)-L-tyrosine (squares) and the corresponding decaged species (circles) are shown.
# Irradiation of O-(2-nitrobenzyl)-L-tyrosine (synthesized from L-tyrosine as described in Miller et al., Neuron 1998, 20, 619) at 365 nm induces cleavage of the benzylic CO-bond and rapid formation of the decaged amino acid (t1/2=4 min, see supporting information), as illustrated schematically in FIG. 8.
# Photodecaging of O-(2-nitrobenzyl)-L-tyrosine can be experimentally observed, as illustrated in the experimental results shown in FIG. 9. As shown in this figure, the photodecaging of O-(2-nitrobenzyl)-L-tyrosine was studied by irradiation of a 0.2 mM solution in water (one well of a six-well plate) using a handheld UV lamp (365 nm at 10 mm distance). Aliquots were taken at specific time points and analyzed by LC/MS. 50% decaging was achieved after approximately four minutes.
# [2] = system: Z domain protein gene with amber codon at seventh position; test: Expression of amber mutant Z domain protein with unnatural amino acid, SDS-PAGE and MALDI-TOF MS; type: cell-based, E. coli
# Method: To confirm that the observed phenotype is caused by the site-specific incorporation of p-ethylthiocarbonyl-L-phenylalanine by the mutRNACUA-mutTyrRS pair, an amber codon was substituted for the seventh position (Tyr) in the gene encoding the Z domain protein (Nilsson et al., Protein Eng. 1987, 1, 107-113) fused to a C-terminal His6 tag. Protein was expressed in the presence or absence of 1 mM p-ethylthiocarbonyl-L-phenylalanine and purified by Ni-NTA chromatography. […]
# Additional evidence for the site specific incorporation of p-ethylthiocarbonyl-L-phenylalanine was obtained by matrix-assisted laser desorption/ionization time-of-flight mass spectrometry (MALDI-TOF MS). In addition to the observation of an experimental average mass of 8006 Da for the intact Tyr p-ethylthiocarbonyl-L-phenylalanine protein (MTheoretical=8002 Da, see, FIG. 16), a minor peak corresponding to the mutant protein without the first methionine moiety in acetylated form (MExperimental=7913 Da vs. MTheoretical=7913 Da) and a major peak corresponding to the mutant protein without the first methionine moiety (MExperimental=7871 Da vs. MTheoretical=7871 Da) were also detected (FIG. 16). Another major peak of 7828 Da was present that corresponds to Z domain protein containing a free carboxylic acid group instead of a thioester moiety at position 7, which has a calculated mass of 7827 Da in its protonated form. […]
# [3] = system: human superoxide dismutase bearing amber codon at position 33 (hSOD-33TAG-His6); test: Expression of hSOD-33TAG-His6 in yeast with mutant E. coli leucyl-tRNA synthetases, SDS-PAGE; type: cell-based; conditions: yeast host cells
# From the text: To increase hydrolytic activity towards leucine, residues T252 and V338 in the E. coli synthetase editing domain were exchanged to alanine by Quikchange mutagenesis in order to enlarge the binding pocket (see, FIG. 6A). […] High selectivity of this mutant was further confirmed by MALDI TOF MS of hSOD-33TAG-His6.
# To evolve a more efficient oNBS translation system, the selected clone 3H11 synthetase was diversified by error prone PCR, again using three different mutagenicities, to introduce one, two or five mutations per gene, yielding an overall diversity of 1×10^7 clones. The positions in the leucyl-tRNA-synthetase enzyme that were targeted for randomization were M40, L41, Y499, Y527 and H537. The protocols used herein follow the general methodologies described in the art, e.g., Wu et al., Journal of the American Chemical Society 126:14306-14307 (2004); and International Application No. PCT/US 2005/034002, filed Sep. 21, 2005, by Deiters et al.
# Sequencing of the G2-6 clone identified five additional mutations throughout the enzyme in comparison to the initial 3H11 synthetase starting material (positions S31G, T247A, T248S, M617I and V673A). Additional mutations (caused during library construction) found in all clones throughout the library were also observed as follows: H67R, N196T, R262A and S497C. […]
molecule,measurement,setting,value
N[C@@H](Cc1ccc(OCc2ccccc2[N+](=O)[O-])cc1)C(=O)O [O-(2-nitrobenzyl)-L-tyrosine],Decaging,"[1]; after approximately four minutes, 0.2 mM solution in water, handheld UV lamp 365 nm at 10 mm distance",50%
same,half-life at 0.2 mM,"[1]; solution in water under UV irradiation (365 nm), irradiation at 365 nm, read-out: t1/2 of formation of the decaged amino acid",4 min
CC(=O)CC(=O)c1ccc(C[C@H](N)C(=O)O)cc1 [p-(3-oxobutanoyl)-L-phenylalanine],Fidelity for the incorporation,"[2]; MALDI-TOF MS, signal-to-noise ratio >400, evolved mutRNACUA^Tyr-mutTyrRS pair",> 99%
same,Incorporation efficiency compared to tyrosine,"[2]; Z domain protein, seventh position, 1 mM unnatural amino acid, SDS-PAGE",around 30%
"clone 3H11 (protein, o-nitrobenzylcysteine aminoacyl-tRNA synthetase) MEEQYRPEEIESKVQLHWDEKRTFEVTEDESKEKYYCLSWSPYPSGRLHMGHVRNYTIGDVIARYQRMLGKNVLQPIGWDAFGLPAEGAAVKNNTAPAPWTYDNIAYMKNQLKMLGFGYDWSRELATCTPEYYRWEQKFFTELYKKGLVYKKTSAVNWCPNDQTVLANEQVIDGCCWRCDTKVERKEIPQWFIKITAYADELLNDLDKLDHWPDTVKTMQRNWIGRSEGVEITFNVNDYDNTLTVYTTRPDTFMGCTYLAVAAGHPLAQKAAENNPELAAFIDECRNTKVAEAEMATMEKKGVDTGFKAVHPLTGEEIPVWAANFVLMEYGTGAVMAVPGHDQRDYEFASKYGLNIKPVILAADGSEPDLSQQALTEKGVLFNSGEFNGLDHEAAFNAIADKLTAMGVGERKVNYRLRDWGVSRQRYWGAPIPMVTLEDGTVMPTPDDQLPVILPEDVVMDGITSPIKADPEWAKTTVNGMPALRETDTFDTFMESCWIYARYTCPQYKEGMLDSEAANYWLPVDIAIGGIEHAIMGLLYFRFFHKLMRDAGMVNSDEPAKQLLCQGMVLADAFYYVGENGERNWVSPVDAIVERDEKGRIVKAKDAAGHELVYTGMSKMSKSKNNGIDPQVMVERYGADTVRLFMMFASPADMTLEWQESGVEGANRFLKRVWKLVYEHTAKGDVAALNVDALTENQKALRRDVHKTIAKVTDDIGRRQTFNTAIAAIMELMNKLAKAPTDGEQDRALMQEALLAVVRMLNPFTPHICFTLWQELKGEGDIDNAPWPVADEKAMVEDSTLVVVQVNGKVRAKITVPVDATEEQVRERAGQEHLVAKYLDGVTVRKVIYVPGKLLNLVVG",oNBS incorporation efficiency compared to an oNBC amino acid (in words),[3],twofold reduced efficiency
